Assay results as given in patent US8471005B2 (Cephalon, Inc., priority 2008, dated 2013).
Where two headings read alike, the source gives them in different places.

How the values were obtained:
ALK = target: T1, ALK (Homo sapiens, UniProt Q9UM73); assay: ALK Kinase Assay (ELISA/TRF, PLC-γ substrate); type: biochemical; conditions: read-out: ALK Potency
T1 construct: host or cells: baculovirus expression system
In short: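 IC50 values derive from percent inhibition plotted against log10 compound concentration and fitted to a variable-slope sigmoidal equation. The underlying reaction used 30 ng/ml ALK acting on immobilized PLC-γ (10 μg/mL in TBS) at 37° C for 15 minutes, read with Eu-N1 PT66 antibody.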

JAK2 = target: T2, JAK2 (Homo sapiens, UniProt O60674); assay: Recombinant Human JAK2 Kinase Assay (TRF); type: biochemical; conditions: read-out: JAK2 Potency
T2 construct: host or cells: baculovirus expression system
T2 sequence (O60674 whole entry): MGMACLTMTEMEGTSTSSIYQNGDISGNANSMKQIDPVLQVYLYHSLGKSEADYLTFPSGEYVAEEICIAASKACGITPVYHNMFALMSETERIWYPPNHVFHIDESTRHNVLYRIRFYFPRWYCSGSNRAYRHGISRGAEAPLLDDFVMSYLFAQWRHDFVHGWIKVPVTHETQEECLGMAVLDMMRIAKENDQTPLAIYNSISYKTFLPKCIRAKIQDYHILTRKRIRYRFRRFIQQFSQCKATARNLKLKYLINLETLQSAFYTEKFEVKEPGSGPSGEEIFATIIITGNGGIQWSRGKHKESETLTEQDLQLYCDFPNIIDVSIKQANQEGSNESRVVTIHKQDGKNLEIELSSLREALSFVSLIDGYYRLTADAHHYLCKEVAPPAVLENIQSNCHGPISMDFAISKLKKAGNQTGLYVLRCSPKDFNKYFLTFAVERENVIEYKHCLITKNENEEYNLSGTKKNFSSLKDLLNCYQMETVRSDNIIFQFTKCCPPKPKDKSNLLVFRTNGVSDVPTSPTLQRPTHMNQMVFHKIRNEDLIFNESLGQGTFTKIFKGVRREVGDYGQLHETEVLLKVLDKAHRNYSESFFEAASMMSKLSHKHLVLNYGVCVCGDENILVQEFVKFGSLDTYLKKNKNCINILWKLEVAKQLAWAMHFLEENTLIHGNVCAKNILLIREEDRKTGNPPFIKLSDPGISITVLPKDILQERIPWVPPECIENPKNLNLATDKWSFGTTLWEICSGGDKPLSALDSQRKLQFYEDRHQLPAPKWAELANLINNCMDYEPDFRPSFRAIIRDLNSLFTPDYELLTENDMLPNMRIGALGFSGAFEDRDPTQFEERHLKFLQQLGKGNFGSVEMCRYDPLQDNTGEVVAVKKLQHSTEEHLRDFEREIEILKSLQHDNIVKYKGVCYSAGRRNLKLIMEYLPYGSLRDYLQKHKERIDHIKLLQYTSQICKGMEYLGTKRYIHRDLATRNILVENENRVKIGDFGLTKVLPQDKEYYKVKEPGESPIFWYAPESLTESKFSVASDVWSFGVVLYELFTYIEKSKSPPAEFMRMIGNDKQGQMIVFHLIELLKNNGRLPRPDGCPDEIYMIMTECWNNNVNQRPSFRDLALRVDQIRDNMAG
In short: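 Baculovirus-expressed JAK2 (15 ng/ml) phosphorylated a biotinylated 15-mer peptide captured on Neutravidin, in 20 mM HEPES pH 7.2, 0.2 μM ATP, 1 mM MnCl2, 0.1% BSA, 2.5% DMSO final, 20 min at room temperature. Phosphoproduct detected by time-resolved fluorescence with Eu-N1-labelled PY100 antibody.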

[1] = ALK kinase inhibition, 1 μM ATP
[2] = JAK2 kinase inhibition, 0.2 μM ATP

T1 sequence (Q9UM73 19-1620): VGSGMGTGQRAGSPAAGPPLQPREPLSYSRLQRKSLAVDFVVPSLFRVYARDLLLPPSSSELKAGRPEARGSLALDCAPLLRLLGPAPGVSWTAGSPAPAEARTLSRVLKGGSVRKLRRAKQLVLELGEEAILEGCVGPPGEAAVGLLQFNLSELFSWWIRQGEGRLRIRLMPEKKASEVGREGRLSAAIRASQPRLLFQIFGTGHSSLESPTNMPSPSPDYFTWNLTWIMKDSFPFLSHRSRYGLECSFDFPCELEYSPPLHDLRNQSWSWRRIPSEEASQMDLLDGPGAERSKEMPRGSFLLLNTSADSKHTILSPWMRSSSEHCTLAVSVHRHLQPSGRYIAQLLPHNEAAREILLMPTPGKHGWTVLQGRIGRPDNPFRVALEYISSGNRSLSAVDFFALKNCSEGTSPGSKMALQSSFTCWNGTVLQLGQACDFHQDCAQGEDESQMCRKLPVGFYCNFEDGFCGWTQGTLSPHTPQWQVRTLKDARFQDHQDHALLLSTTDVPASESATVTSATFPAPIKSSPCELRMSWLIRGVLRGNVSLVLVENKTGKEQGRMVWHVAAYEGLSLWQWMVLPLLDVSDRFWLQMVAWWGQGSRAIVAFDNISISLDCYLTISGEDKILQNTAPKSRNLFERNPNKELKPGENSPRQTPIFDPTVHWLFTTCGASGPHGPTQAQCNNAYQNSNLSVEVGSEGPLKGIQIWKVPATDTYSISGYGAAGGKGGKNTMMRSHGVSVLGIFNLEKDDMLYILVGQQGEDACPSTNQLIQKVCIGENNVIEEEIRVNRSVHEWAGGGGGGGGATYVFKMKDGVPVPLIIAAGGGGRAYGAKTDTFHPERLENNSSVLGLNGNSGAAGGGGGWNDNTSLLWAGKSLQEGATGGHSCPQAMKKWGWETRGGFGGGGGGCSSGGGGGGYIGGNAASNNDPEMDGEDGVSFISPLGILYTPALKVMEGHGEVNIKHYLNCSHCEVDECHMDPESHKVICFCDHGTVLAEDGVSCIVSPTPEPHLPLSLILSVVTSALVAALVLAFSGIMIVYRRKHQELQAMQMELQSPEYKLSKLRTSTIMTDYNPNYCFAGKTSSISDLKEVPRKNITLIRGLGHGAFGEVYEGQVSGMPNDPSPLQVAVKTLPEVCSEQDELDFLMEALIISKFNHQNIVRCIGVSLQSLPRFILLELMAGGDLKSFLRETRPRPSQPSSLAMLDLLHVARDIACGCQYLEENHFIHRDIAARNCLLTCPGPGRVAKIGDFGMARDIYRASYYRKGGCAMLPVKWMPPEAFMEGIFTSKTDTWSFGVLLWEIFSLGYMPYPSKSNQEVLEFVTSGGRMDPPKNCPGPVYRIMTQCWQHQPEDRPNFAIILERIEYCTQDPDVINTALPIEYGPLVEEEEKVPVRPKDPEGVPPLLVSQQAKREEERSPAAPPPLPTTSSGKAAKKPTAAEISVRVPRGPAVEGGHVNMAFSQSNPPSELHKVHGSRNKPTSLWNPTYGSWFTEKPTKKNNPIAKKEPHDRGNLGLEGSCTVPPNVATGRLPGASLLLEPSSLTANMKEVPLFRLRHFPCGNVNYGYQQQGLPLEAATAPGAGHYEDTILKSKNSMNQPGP

Row | Compound | IC50 (ALK; ALK Kinase Inhibition) [nM] | IC50 (JAK2; JAK2 Kinase Inhibition) [nM] | IC50 (ALK; [1]) [nM] | IC50 (JAK2; [2]) [nM]
1 | COc1cc2c(cc1Nc1ncc3ccc(-c4ccccc4OC)n3n1)CN(C)C2 [Example 816, (6-Methoxy-2-methyl-2,3-dihydro-1H-isoindol-5-yl)-[7-(2-methoxy-phenyl)-pyrrolo[2,1-f][1,2,4]triazin-2-yl]-amine] | – | – | < 100 | < 100
2 | CC(=O)N1CCc2ccc(Nc3ncc4ccc(-c5cccc(C(=O)NC(C)(C)C)c5)n4n3)cc21 [Example 887, 3-[2-(1-Acetyl-2,3-dihydro-1H-indol-6-ylamino)-pyrrolo[2,1-f][1,2,4]triazin-7-yl]-N-tert-butyl-benzamide] | – | – | > 10000 | 100 to 1000
3 | CCN1CCCC(CC)(c2ccc(Nc3ncc4ccc(-c5ccccc5OC)n4n3)cc2)C1 (racemic) [Example 777, (±)-[4-(1,3-Diethyl-piperidin-3-yl)-phenyl]-[7-(2-methoxy-phenyl)pyrrolo-[2,1-f][1,2,4]triazin-2-yl]-amine] | – | – | < 100 | < 100
4 | CN1CCN(C)C(c2ccc(Nc3ncc4ccc(-c5cccc(S(=O)(=O)N6CCOCC6)c5)n4n3)cc2)C1=O (stereo not shown) [Example 1075, 1,4-Dimethyl-3-(4-{7-[3-(morpholine-4-sulfonyl)-phenyl]-pyrrolo[2,1-f][1,2,4]triazin-2-ylamino}-phenyl)-piperazin-2-one] | – | – | > 10000 | < 100
5 | COc1cc(C2CCN(C(=O)C3CCN3)CC2)ccc1Nc1ncc2ccc(-c3ccccc3N(C)S(C)(=O)=O)n2n1 (racemic) [Example 863, (±)-N-[2-(2-{4-[1-(Azetidine-2-carbonyl)-piperidin-4-yl]-2-methoxy-phenylamino}-pyrrolo[2,1-f][1,2,4]triazin-7-yl)-phenyl]-N-methyl-methanesulfonamide] | – | – | < 100 | 1000 to 10000
6 | CN1CCN(C(=O)c2ccc(Nc3ncc4ccc(-c5cccc(Cl)c5)n4n3)cc2)CC1 [Example 320, {4-[7-(3-Chloro-phenyl)-pyrrolo[2,1-f][1,2,4]triazin-2-ylamino]-phenyl}-(4-methyl-piperazin-1-yl)-methanone] | 100 to 1000 | < 100 | – | –
7 | CN(c1cccc(-c2ccc3cnc(Nc4ccc(N5CCOCC5)cc4)nn23)c1)S(C)(=O)=O [Example 420, N-Methyl-N-{3-[2-(4-morpholin-4-yl-phenylamino)-pyrrolo[2,1-f][1,2,4]triazin-7-yl]-phenyl}-methanesulfonamide] | 1000 to 10000 | < 100 | – | –
8 | COc1cc(N2CCC(N3CCN(S(C)(=O)=O)CC3)CC2)ccc1Nc1ncc2ccc(-c3ccccc3OC)n2n1 [Example 535, {4-[4-(4-Methanesulfonyl-piperazin-1-yl)-piperidin-1-yl]-2-methoxy-phenyl}-[7-(2-methoxy-phenyl)-pyrrolo[2,1-f][1,2,4]triazin-2-yl]-amine] | – | – | < 100 | < 100
9 | O=C(c1cccc(-c2ccc3cnc(Nc4ccc(N5CCOCC5)cc4)nn23)c1)N1CCCC1 [Example 15, {3-[2-(4-Morpholin-4-yl-phenylamino)-pyrrolo[2,1-f][1,2,4]triazin-7-yl]-phenyl}-pyrrolidin-1-yl-methanone] | 100 to 1000 | < 100 | – | –
10 | COc1cc(C2CCN(C)CC2OC)ccc1Nc1ncc2ccc(-c3ccccc3OC)n2n1 (racemic) [Example 859, (±)-[2-Methoxy-4-(3-methoxy-1-methyl-piperidin-4-yl)-phenyl]-[7-(2-methoxy-phenyl)-pyrrolo[2,1-f][1,2,4]triazin-2-yl]-amine] | – | – | < 100 | < 100
11 | COc1ccccc1-c1ccc2cnc(Nc3ccc(C4CCN(CC(N)=O)CC4)cc3)nn12 [Example 660, 2-(4-{4-[7-(2-Methoxy-phenyl)-pyrrolo[2,1-f][1,2,4]triazin-2-ylamino]-phenyl}-piperidin-1-yl)-acetamide] | – | – | < 100 | < 100
12 | COc1ccccc1-c1ccc2cnc(Nc3ccc4c(c3)C(N)C(O)C4)nn12 (stereo not shown) [Example 681, 1-Amino-6-[7-(2-methoxy-phenyl)-pyrrolo[2,1-f][1,2,4]triazin-2-ylamino]-indan-2-ol] | – | – | 100 to 1000 | < 100
13 | COc1ccccc1-c1ccc2cnc(Nc3ccc4c(c3)OCO4)nn12 [Example 149, 1,3-Benzodioxol-5-yl-[7-(2-methoxy-phenyl)-pyrrolo[2,1-f][1,2,4]triazin-2-yl]-amine] | 100 to 1000 | < 100 | – | –
14 | COc1cc(C2CCN(CC(N)=O)CC2)ccc1Nc1ncc2ccc(-c3ccncc3OC)n2n1 [Example 857, 2-(4-{3-Methoxy-4-[7-(3-methoxy-pyridin-4-yl)-pyrrolo[2,1-f][1,2,4]triazin-2-ylamino]-phenyl}-piperidin-1-yl)-acetamide] | – | – | < 100 | 100 to 1000
15 | COc1cc(Nc2ncc3ccc(-c4cccc(Cl)c4)n3n2)cc(OC)c1 [Example 156, [7-(3-Chloro-phenyl)-pyrrolo[2,1-f][1,2,4]triazin-2-yl]-(3,5-dimethoxy-phenyl)-amine] | > 10000 | < 100 | – | –
16 | CN1CCC2(CCc3cc(Nc4ncc5ccc(-c6cccc(NS(C)(=O)=O)c6)n5n4)ccc3O2)CC1 [Example 378] | < 100 | < 100 | – | –
17 | COc1ccccc1-c1ccc2cnc(NC(=O)Nc3ccc(N4CCN(C)CC4)cc3)nn12 [Example 449, 1-[7-(2-Methoxy-phenyl)-pyrrolo[2,1-f][1,2,4]triazin-2-yl]-3-[4-(4-methyl-piperazin-1-yl)-phenyl]-urea] | 100 to 1000 | < 100 | – | –
18 | COc1ccccc1-c1ccn2nc(Nc3ccc4c(c3)CN(C)CC4)ncc12 [Example 722, [5-(2-Methoxy-phenyl)-pyrrolo[2,1-f][1,2,4]triazin-2-yl]-(2-methyl-1,2,3,4-tetrahydro-isoquinolin-7-yl)-amine] | – | – | > 10000 | 1000 to 10000
19 | CN1CCN(C2CCN(c3ccc(Nc4ncc5ccc(-c6cccnc6)n5n4)cc3)CC2)CC1 [Example 313, {4-[4-(4-Methyl-piperazin-1-yl)-piperidin-1-yl]-phenyl}-(7-pyridin-3-yl-pyrrolo[2,1-f][1,2,4]triazin-2-yl)-amine] | 100 to 1000 | < 100 | – | –
20 | COc1ccccc1-c1ccc2cnc(Nc3ccc4nc(CO)[nH]c4c3)nn12 [Example 1067, {6-[7-(2-Methoxy-phenyl)-pyrrolo[2,1-f][1,2,4]triazin-2-ylamino]-1H-benzoimidazol-2-yl}-methanol] | – | – | 100 to 1000 | < 100

Continued, values first:

Row | IC50 (ALK; ALK Kinase Inhibition) [nM] | IC50 (JAK2; JAK2 Kinase Inhibition) [nM] | IC50 (ALK; [1]) [nM] | IC50 (JAK2; [2]) [nM] | Compound
21 | 100 to 1000 | < 100 | – | – | CN1CCN(c2ccc(Nc3ncc4ccc(-c5ccc(S(C)(=O)=O)cc5)n4n3)cc2F)CC1 [Example 1437, [3-Fluoro-4-(4-methyl-piperazin-1-yl)-phenyl]-[7-(4-methanesulfonyl-phenyl)-pyrrolo[2,1-f][1,2,4]triazin-2-yl]-amine]
22 | – | – | < 100 | < 100 | CN(c1ccccc1-c1ccc2cnc(Nc3ccc(N4CCN(CCO)CC4)cc3)nn12)S(C)(=O)=O [Example 1175, N-[2-(2-{4-[4-(2-Hydroxy-ethyl)-piperazin-1-yl]-phenylamino}-pyrrolo[2,1-f][1,2,4]triazin-7-yl)-phenyl]-N-methyl-methanesulfonamide]
23 | 100 to 1000 | < 100 | – | – | NC(=O)CN1CCC(c2ccc(Nc3ncc4ccc(-c5cccc6c5OC(F)(F)O6)n4n3)cc2)CC1 [Example 1540, 2-(4-{4-[7-(2,2-Difluoro-benzo[1,3]dioxol-4-yl)-pyrrolo[2,1-f][1,2,4]triazin-2-ylamino]-phenyl}-piperidin-1-yl)-acetamide]
24 | 1000 to 10000 | < 100 | – | – | CC(C)(C)NS(=O)(=O)c1cccc(-c2ccc3cnc(Nc4ccc5c(c4)NC(=O)C(C)(C)O5)nn23)c1 [Example 1376, N-tert-Butyl-3-[2-(2,2-dimethyl-3-oxo-3,4-dihydro-2H-1,4-benzoxazin-6-ylamino)-pyrrolo[2,1-f][1,2,4]triazin-7-yl]-benzenesulfonamide]
25 | 100 to 1000 | < 100 | – | – | COc1ccc(-c2ccc3cnc(Nc4ccc(C5CN(C)CCN5C)cc4)nn23)cn1 (stereo not shown) [Example 1530, [4-(1,4-Dimethyl-piperazin-2-yl)-phenyl]-[7-(6-methoxy-pyridin-3-yl)-pyrrolo[2,1-f][1,2,4]triazin-2-yl]-amine]
26 | 1000 to 10000 | < 100 | – | – | Cn1cc(-c2ccc3cnc(Nc4cccc(NS(C)(=O)=O)c4)nn23)cn1 [Example 1389, N-{3-[7-(1-Methyl-1H-pyrazol-4-yl)-pyrrolo[2,1-f][1,2,4]triazin-2-ylamino]-phenyl}-methanesulfonamide]
27 | 100 to 1000 | < 100 | – | – | COc1ccc(-c2cc(Cl)c3cnc(Nc4ccc(C5CCN(CC(N)=O)CC5)cc4)nn23)cn1 [Example 1555, 2-(4-{4-[5-Chloro-7-(6-methoxy-pyridin-3-yl)-pyrrolo[2,1-f][1,2,4]triazin-2-ylamino]-phenyl}-piperidin-1-yl)-acetamide]
28 | < 100 | 100 to 1000 | – | – | COc1ccc(OC)c(-c2ccc3cnc(Nc4ccc(N5CCC(N6CCOCC6)CC5)cc4OC)nn23)c1 [Example 1476, [7-(2,5-Dimethoxy-phenyl)-pyrrolo[2,1-f][1,2,4]triazin-2-yl]-[2-methoxy-4-(4-morpholin-4-yl-piperidin-1-yl)-phenyl]-amine]
29 | 100 to 1000 | < 100 | – | – | CS(=O)(=O)c1ccc(-c2ccc3cnc(Nc4ccc(C5CCN(CC(N)=O)CC5)cc4)nn23)cc1 [Example 1435, 2-(4-{4-[7-(4-Methanesulfonyl-phenyl)-pyrrolo[2,1-f][1,2,4]triazin-2-ylamino]-phenyl}-piperidin-1-yl)-acetamide]
